Results: ChEMBL document CHEMBL1201862, “PubChem BioAssay data set” (2004)
Calls of active or inactive are those of the source.

Tests used:
Kallikrein-7 = Kallikrein-7 (Homo sapiens, UniProt P49862); test: Fluorescence Intensity-based biochemical primary high throughput dose response assay to identify activators of kallikrein-7 (K7) zymogen.
[1] = biological target: T1, Oxysterols receptor LXR-beta (Homo sapiens, UniProt P55055); type: functional, cell-based;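 further: Cell-based luminescence dose-response assay of agonist activity at LXR, run as a confirmatory counterscreen to a daf-12 agonist screen; HEK293 cells with Gal4-LXR fusion and GAL4-driven luciferase reporter; agonist potency from rising luciferase signal of a Gal4-LXR reporter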
T1 sequence (P55055 whole entry): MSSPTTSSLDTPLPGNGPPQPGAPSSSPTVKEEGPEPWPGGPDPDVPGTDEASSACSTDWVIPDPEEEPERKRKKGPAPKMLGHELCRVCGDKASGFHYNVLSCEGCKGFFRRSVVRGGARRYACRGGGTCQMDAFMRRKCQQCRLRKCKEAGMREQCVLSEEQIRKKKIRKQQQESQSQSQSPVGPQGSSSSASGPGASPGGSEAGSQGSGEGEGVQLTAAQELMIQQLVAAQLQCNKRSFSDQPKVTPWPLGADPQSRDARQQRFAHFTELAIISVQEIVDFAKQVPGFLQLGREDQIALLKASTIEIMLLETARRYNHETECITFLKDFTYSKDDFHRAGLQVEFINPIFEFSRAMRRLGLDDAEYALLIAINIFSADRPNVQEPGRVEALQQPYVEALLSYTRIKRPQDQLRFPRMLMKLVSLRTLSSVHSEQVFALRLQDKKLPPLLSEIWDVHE

[2] = biological target: T2, Histone-lysine N-methyltransferase NSD2 (Homo sapiens, UniProt O96028); type: biochemical
T2 sequence (O96028 whole entry): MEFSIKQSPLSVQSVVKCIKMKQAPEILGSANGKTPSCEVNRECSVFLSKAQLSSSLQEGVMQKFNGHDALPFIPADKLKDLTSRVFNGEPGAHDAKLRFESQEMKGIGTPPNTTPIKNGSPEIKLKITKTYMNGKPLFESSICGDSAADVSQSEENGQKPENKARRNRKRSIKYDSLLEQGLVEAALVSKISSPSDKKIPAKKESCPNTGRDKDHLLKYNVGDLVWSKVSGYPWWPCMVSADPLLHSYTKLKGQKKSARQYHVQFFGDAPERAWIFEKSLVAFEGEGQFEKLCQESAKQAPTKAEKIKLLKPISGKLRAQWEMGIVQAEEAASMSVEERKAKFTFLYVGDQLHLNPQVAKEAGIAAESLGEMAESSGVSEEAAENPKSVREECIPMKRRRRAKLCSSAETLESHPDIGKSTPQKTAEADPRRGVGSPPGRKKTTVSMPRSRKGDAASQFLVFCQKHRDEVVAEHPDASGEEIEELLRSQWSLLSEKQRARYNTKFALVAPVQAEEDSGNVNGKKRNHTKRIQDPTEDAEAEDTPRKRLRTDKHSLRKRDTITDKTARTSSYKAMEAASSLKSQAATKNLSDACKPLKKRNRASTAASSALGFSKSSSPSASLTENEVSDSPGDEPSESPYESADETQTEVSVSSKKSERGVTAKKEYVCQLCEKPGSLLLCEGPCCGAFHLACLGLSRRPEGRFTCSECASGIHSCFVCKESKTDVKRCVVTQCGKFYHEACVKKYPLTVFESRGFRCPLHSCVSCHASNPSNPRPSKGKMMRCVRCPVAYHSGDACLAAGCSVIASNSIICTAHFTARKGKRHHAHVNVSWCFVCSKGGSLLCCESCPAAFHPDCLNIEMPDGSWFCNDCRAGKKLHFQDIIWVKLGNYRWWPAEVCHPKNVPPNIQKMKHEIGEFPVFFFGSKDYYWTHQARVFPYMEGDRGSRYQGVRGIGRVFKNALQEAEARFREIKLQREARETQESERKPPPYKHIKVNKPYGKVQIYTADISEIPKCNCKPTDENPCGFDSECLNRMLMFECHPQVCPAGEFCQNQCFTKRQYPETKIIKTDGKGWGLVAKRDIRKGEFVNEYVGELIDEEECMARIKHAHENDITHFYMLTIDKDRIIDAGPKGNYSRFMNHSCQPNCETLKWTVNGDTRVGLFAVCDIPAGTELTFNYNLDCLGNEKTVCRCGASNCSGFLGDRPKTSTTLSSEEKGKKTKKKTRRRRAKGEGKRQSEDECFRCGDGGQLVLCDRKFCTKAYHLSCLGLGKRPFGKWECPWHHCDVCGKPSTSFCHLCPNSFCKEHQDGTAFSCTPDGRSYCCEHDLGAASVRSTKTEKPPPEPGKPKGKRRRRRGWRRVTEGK

[3] = biological target: T3, Zinc finger protein mex-5 (Caenorhabditis elegans, UniProt Q9XUB2); test: potency of MEX-5 RNA-binding blockers – biochemical, C. elegans, fluorescence polarization, dose response (AID 1960)
T3 sequence (Q9XUB2 whole entry): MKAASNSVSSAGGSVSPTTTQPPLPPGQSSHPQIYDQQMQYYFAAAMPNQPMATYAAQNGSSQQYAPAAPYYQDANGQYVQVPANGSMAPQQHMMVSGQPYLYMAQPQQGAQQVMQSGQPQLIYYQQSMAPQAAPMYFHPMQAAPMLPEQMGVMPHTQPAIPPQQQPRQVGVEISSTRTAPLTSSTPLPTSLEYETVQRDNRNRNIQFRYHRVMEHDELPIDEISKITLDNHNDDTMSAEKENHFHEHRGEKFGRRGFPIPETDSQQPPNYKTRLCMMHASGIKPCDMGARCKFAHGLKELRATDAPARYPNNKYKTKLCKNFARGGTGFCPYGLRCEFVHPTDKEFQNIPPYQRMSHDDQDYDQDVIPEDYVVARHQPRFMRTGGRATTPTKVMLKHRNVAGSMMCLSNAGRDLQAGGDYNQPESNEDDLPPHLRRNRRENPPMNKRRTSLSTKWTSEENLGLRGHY

[4] = biological target: T4, Carboxy-terminal domain RNA polymerase II polypeptide A small phosphatase 1 (Homo sapiens, UniProt Q9GZU7); test: CTDSP1 inhibitors, concentration-response, biochemical, absorbance readout, ultra-high-throughput screen actives (AID 540297); type: functional
T4 sequence (Q9GZU7 whole entry): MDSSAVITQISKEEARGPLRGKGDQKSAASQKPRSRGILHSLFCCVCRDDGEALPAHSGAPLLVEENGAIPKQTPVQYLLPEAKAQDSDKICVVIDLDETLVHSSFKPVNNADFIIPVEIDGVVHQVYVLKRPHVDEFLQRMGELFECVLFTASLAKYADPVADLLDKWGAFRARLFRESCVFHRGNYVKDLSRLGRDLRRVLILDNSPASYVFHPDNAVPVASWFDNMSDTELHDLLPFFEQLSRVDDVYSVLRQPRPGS

[5] = biological target: T5, Dual specificity protein phosphatase 6 (Rattus norvegicus, UniProt Q64346); test: inhibition of rat DUSP6 enzyme activity – biochemical, in vitro, primary screen (AID 425)
T5 sequence (Q64346 whole entry): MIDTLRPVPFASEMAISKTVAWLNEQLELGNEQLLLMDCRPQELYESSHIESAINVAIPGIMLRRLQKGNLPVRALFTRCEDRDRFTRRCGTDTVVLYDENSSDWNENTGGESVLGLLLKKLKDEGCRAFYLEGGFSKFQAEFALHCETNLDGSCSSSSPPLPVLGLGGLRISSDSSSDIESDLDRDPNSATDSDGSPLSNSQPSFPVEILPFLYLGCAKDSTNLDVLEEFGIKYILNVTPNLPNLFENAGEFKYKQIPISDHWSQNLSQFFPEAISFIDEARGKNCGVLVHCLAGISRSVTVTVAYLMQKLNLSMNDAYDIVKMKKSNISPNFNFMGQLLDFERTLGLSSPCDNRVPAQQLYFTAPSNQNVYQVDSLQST

Estrogen receptor beta = Estrogen receptor beta (Homo sapiens, UniProt Q92731); test: blockers of SRC-3 recruitment to ERβ – biochemical, ELISA, streptavidin-HRP readout, orthogonal assay, confirmation (AID 1060)
Sequence of Estrogen receptor beta (Q92731 whole entry): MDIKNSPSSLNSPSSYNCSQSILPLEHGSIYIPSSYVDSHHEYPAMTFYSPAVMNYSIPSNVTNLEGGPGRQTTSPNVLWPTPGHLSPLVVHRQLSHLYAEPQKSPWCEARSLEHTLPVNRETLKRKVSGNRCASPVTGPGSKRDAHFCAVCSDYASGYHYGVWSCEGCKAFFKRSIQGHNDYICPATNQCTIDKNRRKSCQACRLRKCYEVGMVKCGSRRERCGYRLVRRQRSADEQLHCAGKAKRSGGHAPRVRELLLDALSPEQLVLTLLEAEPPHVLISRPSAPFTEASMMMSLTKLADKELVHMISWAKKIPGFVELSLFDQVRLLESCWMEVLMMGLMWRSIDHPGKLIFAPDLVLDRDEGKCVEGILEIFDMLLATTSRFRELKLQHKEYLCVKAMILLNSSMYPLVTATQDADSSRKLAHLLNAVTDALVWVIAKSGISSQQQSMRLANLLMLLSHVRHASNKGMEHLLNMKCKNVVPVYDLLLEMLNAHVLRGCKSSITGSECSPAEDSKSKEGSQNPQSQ

Bcl-2-like protein 10 = biological target: T6, Bcl-2-like protein 10 (Homo sapiens, UniProt Q9HD36); test: Bcl-B/TR3 peptide binding disruption – biochemical, fluorescence polarization, FITC-TR3 peptide, selectivity assay for Bfl-1 inhibitor project, primary screen (AID 748);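 further: fluorescence polarization from a fluorescein-labelled TR3 peptide binding purified Bcl-B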
T6 sequence (Q9HD36 whole entry): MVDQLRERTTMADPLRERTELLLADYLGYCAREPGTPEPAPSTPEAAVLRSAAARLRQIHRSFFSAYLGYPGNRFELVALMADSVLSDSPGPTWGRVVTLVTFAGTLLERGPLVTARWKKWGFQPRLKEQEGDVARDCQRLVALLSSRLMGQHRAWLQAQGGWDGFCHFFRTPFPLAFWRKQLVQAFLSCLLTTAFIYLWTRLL

[6] = biological target: Bifunctional protein GlmU (Mycobacterium tuberculosis, UniProt P9WMN3); test: Inhibitors of Mycobacterial Glucosamine-1-phosphate acetyl transferase (GlmU). Secondary screen.; parameters: species or system Mycobacterium tuberculosis H37Rv
Sequence of Bifunctional protein GlmU (P9WMN3 whole entry, the tested form may be a part): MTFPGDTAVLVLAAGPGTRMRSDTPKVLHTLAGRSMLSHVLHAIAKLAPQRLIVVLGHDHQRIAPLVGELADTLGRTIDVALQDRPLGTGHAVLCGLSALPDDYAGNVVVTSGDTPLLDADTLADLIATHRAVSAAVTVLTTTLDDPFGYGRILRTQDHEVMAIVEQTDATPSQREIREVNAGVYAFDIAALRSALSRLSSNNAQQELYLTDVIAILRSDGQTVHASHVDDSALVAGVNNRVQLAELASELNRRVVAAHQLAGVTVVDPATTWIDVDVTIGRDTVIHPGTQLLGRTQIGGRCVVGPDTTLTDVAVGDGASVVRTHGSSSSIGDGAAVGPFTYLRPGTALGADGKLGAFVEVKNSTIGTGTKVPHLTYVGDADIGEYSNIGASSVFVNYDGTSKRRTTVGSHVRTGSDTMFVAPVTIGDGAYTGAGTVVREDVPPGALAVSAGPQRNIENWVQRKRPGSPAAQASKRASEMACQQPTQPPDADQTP

[7] = biological target: T7, RNA-binding protein pos-1 (Caenorhabditis elegans, UniProt G5EF15); test: disruptors of C. elegans POS-1 RNA interaction – biochemical, fluorescence polarization, dose response (AID 1964);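 further: purified POS-1 fused to maltose binding protein made in E. coli; potency of compounds blocking POS-1 binding to fluorescent RNA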
T7 sequence (G5EF15 whole entry): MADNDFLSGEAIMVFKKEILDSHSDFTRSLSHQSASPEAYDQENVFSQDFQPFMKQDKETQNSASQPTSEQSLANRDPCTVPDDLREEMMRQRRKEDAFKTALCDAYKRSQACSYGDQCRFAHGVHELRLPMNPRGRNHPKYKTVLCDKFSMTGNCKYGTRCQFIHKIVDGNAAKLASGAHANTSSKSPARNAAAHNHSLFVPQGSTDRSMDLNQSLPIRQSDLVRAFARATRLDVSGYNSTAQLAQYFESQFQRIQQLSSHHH

[8] = biological target: Potassium channel subfamily K member 3 (Rattus norvegicus, UniProt O54912); test: SAR analysis for the identification of selective inhibitors of the two-pore domain potassium channel TASK1(KCNK3):Automated Electrophysiology.; type: functional
Sequence of Potassium channel subfamily K member 3 (Rattus norvegicus, UniProt O54912) (O54912 whole entry, the tested form may be a part): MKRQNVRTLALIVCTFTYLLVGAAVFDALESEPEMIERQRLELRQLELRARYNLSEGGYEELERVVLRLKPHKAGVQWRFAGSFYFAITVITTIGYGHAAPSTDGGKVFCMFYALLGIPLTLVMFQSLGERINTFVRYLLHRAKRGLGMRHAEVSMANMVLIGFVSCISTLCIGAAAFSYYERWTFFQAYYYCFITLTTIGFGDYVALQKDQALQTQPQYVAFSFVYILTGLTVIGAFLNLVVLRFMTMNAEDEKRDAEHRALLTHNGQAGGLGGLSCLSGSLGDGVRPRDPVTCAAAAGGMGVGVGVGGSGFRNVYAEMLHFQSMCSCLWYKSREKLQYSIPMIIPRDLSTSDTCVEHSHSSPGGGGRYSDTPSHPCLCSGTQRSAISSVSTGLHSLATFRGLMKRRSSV

[9] = biological target: T8, Potassium channel subfamily K member 9 (Homo sapiens, UniProt Q9NPC2); test: TASK3 channel blockers, electrophysiology – cell-based, automated electrophysiology, selectivity assay for TASK1 (KCNK3) inhibitor project, SAR follow-up (AID 652210); type: functional
T8 sequence (Q9NPC2 whole entry): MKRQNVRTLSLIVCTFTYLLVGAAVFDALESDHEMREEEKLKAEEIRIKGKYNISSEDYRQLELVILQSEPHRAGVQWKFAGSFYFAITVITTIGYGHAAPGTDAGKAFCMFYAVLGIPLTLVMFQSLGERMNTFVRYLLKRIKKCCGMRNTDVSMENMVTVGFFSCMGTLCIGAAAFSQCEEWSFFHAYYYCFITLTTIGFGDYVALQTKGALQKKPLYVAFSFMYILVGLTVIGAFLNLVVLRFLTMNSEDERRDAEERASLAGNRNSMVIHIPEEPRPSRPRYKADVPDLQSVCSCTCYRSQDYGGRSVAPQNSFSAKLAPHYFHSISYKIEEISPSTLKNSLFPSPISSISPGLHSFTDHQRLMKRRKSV

[10] = biological target: Potassium channel subfamily K member 3 (Homo sapiens, UniProt O14649); test: inhibition of human KCNK3 channel flux – CHO cells, FluxOR thallium flux, SAR follow-up (AID 652212); type: functional
Sequence of Potassium channel subfamily K member 3 (Homo sapiens, UniProt O14649) (O14649 whole entry): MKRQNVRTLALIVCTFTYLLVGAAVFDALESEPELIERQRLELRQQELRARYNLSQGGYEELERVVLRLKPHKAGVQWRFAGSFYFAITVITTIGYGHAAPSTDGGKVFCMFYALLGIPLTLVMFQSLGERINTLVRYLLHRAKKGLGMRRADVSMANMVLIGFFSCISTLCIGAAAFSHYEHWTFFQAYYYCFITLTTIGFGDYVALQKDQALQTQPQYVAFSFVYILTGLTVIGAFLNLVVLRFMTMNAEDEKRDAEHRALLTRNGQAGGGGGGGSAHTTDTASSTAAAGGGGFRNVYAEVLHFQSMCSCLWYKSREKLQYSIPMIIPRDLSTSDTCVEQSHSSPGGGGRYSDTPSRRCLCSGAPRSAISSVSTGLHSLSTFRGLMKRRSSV

[11] = biological target: T8, Potassium channel subfamily K member 9; test: KCNK9 flux blockade, concentration-response – cell-based, FluxOR thallium flux, selectivity assay for TASK1 inhibitor project, SAR follow-up (AID 652211); type: functional;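 further: potency is for inhibitors of the channel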
[12] = IC50 of insulin release inhibition, rat insulinoma INS-1E line, 5 mM glucose, cell-based (AID 1117331); type: functional
[13] = cytotoxicity toward HT-29 cells – cell-based, CellTiter-Glo luminescence, IC50, dose response (AID 1117330); type: functional
[14] = cytotoxicity toward Colo320 cells – cell-based, CellTiter-Glo luminescence, IC50, dose response (AID 1117334); type: functional; conditions: COLO 320
[15] = RKO cell viability reduction, dose response, CellTiter-Glo luminescence (AID 1117322); type: functional
[16] = SNU-C1 cell viability reduction, dose response, CellTiter-Glo luminescence (AID 1117323); type: functional, cell-based
[17] = HCT116 cell viability decrease, GSK3B pretreatment – CellTiter-Glo, IC50, dose response (AID 1117339); type: functional; conditions: HCT-116
[18] = Reduced DLD-1 viability, concentration-response, CellTiter-Glo luminescence (AID 1117352); type: functional
[19] = CellTiter-Glo luminescence survival assay, SW480 colon tumor line, concentration-response curve, half-maximal inhibitory concentration (AID 1117338); type: functional
[20] = cytotoxicity toward HCT116 cells – cell-based, CellTiter-Glo luminescence, IC50, dose response (AID 1117332); type: functional; conditions: HCT-116
[21] = rise of 4N DNA cells, HeLa – IC50, dose response (AID 1117351); type: functional, cell-based
[22] = rise of 2N DNA cells, HeLa – IC50, dose response (AID 1117349); type: functional, cell-based

Sequence of Kallikrein-7 (P49862 whole entry, the tested form may be a part): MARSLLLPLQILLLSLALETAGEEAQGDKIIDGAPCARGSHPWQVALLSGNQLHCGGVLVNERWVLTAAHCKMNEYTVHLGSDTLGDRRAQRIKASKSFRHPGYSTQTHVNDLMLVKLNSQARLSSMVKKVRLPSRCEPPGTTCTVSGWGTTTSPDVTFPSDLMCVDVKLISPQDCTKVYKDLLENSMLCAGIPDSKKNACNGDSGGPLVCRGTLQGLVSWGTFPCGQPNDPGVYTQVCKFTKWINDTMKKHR

## COc1ccc(C2Nc3ccccc3C(=O)N2NC(C)=O)c(OC)c1 (stereo not drawn)
Kallikrein-7
  EC50: 9.55 µM (active)

## Cc1ccc(C2=Nc3ccccc3N=C(C(Cl)Cl)C2)cc1
cells
  EC50: > 67.5 µM (inactive)
[1]
  EC50: > 67.5 µM (inactive)

## O=C(O)c1cccc(-n2cccc2/C=N/O)c1
[2]
  AC50: 12.2 µM (active)
[3]
  EC50: > 300 µM (not active)
[4]
  IC50: 3.09 µM (active)
[5]
  IC50: > 10 µM (not active)
Estrogen receptor beta
  IC50: < 23 nM (not active)
Bcl-2-like protein 10
  IC50: 18.3 µM (active)
[6]
  IC50: 91.6 µM (active)
[7]
  EC50: > 300 µM (not active)

## CCOc1ccccc1C(=O)Nc1cccc(NC(=O)C2CCCC2)c1
[8]
  IC50: 30 nM (active)
[9]
  IC50: 490 nM (active)
[10]
  IC50: 108 nM (active)
[11]
  IC50: 1.11 µM (active)

## CCCCN(CCCC)C(C(N)=O)c1ccc(OC)cc1 (stereo not drawn) [AMBUCETAMIDE]
[12]
  IC50: > 33.3 µM (inactive)

## CCOC(=O)c1ccccc1C(=O)OCC [DIETHYL PHTHALATE]
[13]
  IC50: > 20 µM (inactive)
[14]
  IC50: > 20 µM (inactive)
[15]
  IC50: > 20 µM (inactive)
[16]
  IC50: > 20 µM (inactive)
[17]
  IC50: > 20 µM (inactive)
[18]
  IC50: > 20 µM (inactive)
[19]
  IC50: > 20 µM (inactive)
[20]
  IC50: > 20 µM (inactive)

## NCCCC[C@H](N[C@@H](CCc1ccccc1)C(=O)O)C(=O)N1CCC[C@H]1C(=O)O [LISINOPRIL]
[21]
  IC50: > 10 µM (inactive)
[13]
  IC50: > 6.67 µM (inactive)
[14]
  IC50: > 20 µM (inactive)
[15]
  IC50: 8.88 µM (inactive)
[16]
  IC50: 2.53 µM (active)
[18]
  IC50: 2.24 µM (active)
[19]
  IC50: 4.03 µM (active)
[22]
  IC50: > 10 µM (inactive)
[20]
  IC50: 3.39 µM (active)
